From a melting point compilation (Tetko et al.)

SMILES	melting point [°C]
Cc1ccc(C)c(C(=O)CCl)c1	28 to 30
CC(C)c1nnc(S)n1C	139 to 141
CC(C)c1ccc(C2CC2C(=O)O)cc1 (centres undefined)	67 to 69
CC1(CCc2ccccc2)NC(=O)N(N)C1=O (centres undefined)	< 17
CC(C(=O)O)c1ccc(Cl)c(Cl)c1 (centres undefined)	39 to 41
Oc1ccc(OCC2CC2)cc1	54 to 56
COc1ccc(C(=O)O)c(Br)c1	189 to 191
CC1CCc2c(sc3nc(C(C)Cl)[nH]c(=O)c23)C1 (centres undefined)	248 to 250
NS(=O)(=O)c1nnc[nH]1	224 to 226
CN(C)C(=O)c1ccc2c(c1)CCN2	156 to 158
Oc1ccc(C2=Nn3c(nnc3-c3ccc(Br)cc3)SC2)cc1O	269 to 271
Oc1[nH]nc2c1CC(c1ccccc1)CC2 (centres undefined)	269 to 271
CCC1(c2ccccc2)NC(=O)NC1=O (centres undefined)	203 to 205
NC(=O)c1ccccc1OCCC(=O)O	174 to 176
COC(=O)c1c(C(=O)OC)c(-c2cccc(N)c2)n2c1CCC2	166 to 168
NC1(C(=O)O)CCCCC1	300 to 302
NCCNS(=O)(=O)Cc1ccon1	89 to 91
O=C(NC(Cc1c[nH]c2ccccc12)C(=O)O)c1ccc(F)cc1 (centres undefined)	95 to 98
CC(=O)c1sc(N)nc1-c1ccccc1	145 to 147
CC1(C)CC(=O)c2cncnc2C1	67 to 69
Cc1cc(F)cc(C(=O)O)c1[N+](=O)[O-]	161 to 163
O=C(O)CNC(=O)NC1CC1	179 to 181
CCC(CC(=O)O)c1ccc(OC)cc1 (centres undefined)	83 to 85
COc1ccc(OC)c(NC(=O)C(C)Cl)c1 (centres undefined)	56 to 58
Cc1nc2cc(N)ccc2n1C	164 to 166
NC(=O)CSc1ccccc1C(=O)O	210 to 212

SMILES	melting point [°C]
NC(=S)N1CCN(c2nccs2)CC1	179 to 181
COc1ccc(CNc2ccncn2)cc1OC	124 to 126
O=C(NCCO)c1cccnc1	74 to 76
CC1CCC2(CC1)COC(=O)N2 (centres undefined)	126 to 128
Nc1nc(-c2cccc(Oc3ccccc3)c2)ns1	138 to 140
COc1ccc(NC(=O)Oc2ccccc2)c([N+](=O)[O-])c1	43 to 48
Nc1ccn(Cc2cccnc2)n1	88 to 90
CC(=O)c1sc(-c2ccccc2Br)nc1C	124 to 126
COC(=O)c1ccc(F)c(C)c1N	35 to 37
Nc1ccc(C(=O)O)nc1Cl	214 to 216
Cc1cc(C=O)c(C)n1CC#N	122 to 124
O=C(O)C1CCCN1C(=O)C1CCCCC1 (centres undefined)	135 to 137
Cc1cc(CN)cc(C)c1O	99 to 101
COc1ccc(S(=O)(=O)N2CCC(=NO)CC2)cc1	164 to 166
CCOC(=O)c1nc2c(s1)NCCCC2	144 to 146
O=C(c1cccc(Cl)c1)N1CCNCC1	96 to 98
NS(=O)(=O)c1ccc(N2CCCC2=O)cc1	247 to 249
Cn1cnc2cc(C=O)ccc21	99 to 101
CCOc1ccccc1N1CC(C(=O)O)CC1=O (centres undefined)	104 to 108
COc1cc(C)nc(Cl)n1	35 to 37
O=C(Cc1ccc(Br)cc1)C(F)(F)F	38 to 40
CC1CCc2[nH]c(=O)sc2C1 (centres undefined)	180 to 182
CC1C=CC2C(=O)N(C(C)C)C(=O)C2C1C(=O)O (centres undefined)	149 to 151
O=C(O)c1csc(-c2ccc(Cl)s2)n1	247 to 249
Nc1ncn(Cc2ccc(Br)cc2)n1	169 to 171
COC(=O)C(C#N)=NO	122 to 124

SMILES	melting point [°C]
Nc1nnc(-c2ccc(F)cc2)o1	246 to 248
Cc1nn(C)c(C)c1C(O)C(F)(F)F (centres undefined)	140 to 142
CCC1(C(=O)O)CCOCC1	83 to 85
O=C(O)C1CCCN(C(=O)c2ccc(Br)c(F)c2)C1 (centres undefined)	157 to 159
O=C(c1cc2cc(Br)ccc2o1)c1cccs1	88 to 90
CC1(c2ccc3c(c2)OCCCO3)NC(=O)NC1=O (centres undefined)	192 to 194
Cc1cc(-c2ccccc2)nc(S)n1	208 to 210
O=C(/C=C/c1ccco1)C(C(=O)/C=C/c1ccco1)=C1SCCCCS1	137 to 139
O=C(O)CCS(=O)(=O)C1CCCC1	98 to 100
O=C(O)/C(=C\c1cccc(Cl)c1)c1cccs1	192 to 194
O=C(O)c1cccnc1SC(F)(F)F	162 to 164
NC(=O)c1ncc(Br)cc1Br	187 to 189
COc1cc2c(cc1OC)CN(Cc1ccccc1N)CC2	149 to 151
CC(C)n1[nH]ccc1=NC(=O)Nc1ccccc1	110 to 112
NC(=NO)c1ccc(O)cc1Cl	153 to 155
Cc1ncc(CN)c(O)n1	194 to 196
Cc1ccc(OCCC(=O)O)c(Br)c1	119 to 121
O=S1(=O)CCC(S(=O)(=O)Cl)CC1	175 to 177
O=[N+]([O-])c1ccc(NC2CCOc3ccccc32)cc1 (centres undefined)	124 to 126
COc1cc(OC)c([N+](=O)[O-])cc1F	152 to 154
O=C(O)c1cc(OCc2ccccc2)ccc1O	165 to 167
O=C(O)C=Cc1cn(-c2ccccc2)nc1-c1cccs1	224 to 226
c1cc2c(s1)CCNC2C1CC1 (centres undefined)	44 to 46
CN(C)CCCNS(=O)(=O)c1ccc(Cl)c([N+](=O)[O-])c1	98 to 100
Cc1cc(Cl)ccc1OC(C(=O)O)c1ccccc1 (centres undefined)	122 to 124
COC(=O)c1ccccc1CBr	31 to 33

SMILES	melting point [°C]
O=C(Nc1ccc(O)cc1)c1cccs1	166 to 168
CCCCCS(N)(=O)=O	62 to 64
CS(=O)(=O)Nc1cccc(OCCN)c1	134 to 136
Nc1ccc(-n2cncn2)c(F)c1	126 to 128
CCNc1cc2c(nn1)CCNC2	140 to 142
COc1ccc(C(=O)c2ccccc2Cl)cc1	77 to 79
O=S1(=O)N=C2CCCCCN2C(CCl)N1 (centres undefined)	181 to 183
Cc1ccc(Cn2c(N)cc(=O)[nH]c2=O)cc1	279 to 281
O=C(O)c1ccc(=O)n(Cc2ccccc2)n1	192 to 195
CCc1noc(-c2ccc(C)c(N)c2)n1	77 to 79
COc1ccc2c(c1)c(C(=O)O)c(C)n2C1CCCCC1	137 to 139
CN(CCO)C(=O)c1ccc(O)cc1	123 to 125
CC(C)CC(=O)Nc1ccccc1C(=O)O	121 to 123
O=C(O)CCCCCNS(=O)(=O)c1ccc2c(c1)OCCO2	86 to 90
O=C1COc2ncc(Br)cc2N1	256 to 258
COc1cc(OC)cc(Oc2ccc(C=O)cc2)c1	57 to 59
COC(=O)c1cnn2ccccc12	79 to 81
CC(C)S(=O)(=O)Cc1ccc(N)cc1	134 to 136
COC(=O)COc1ccc(C(C)=O)cc1	85 to 87
CS(=O)(=O)Cc1cc(F)ccc1N	126 to 128
CNS(=O)(=O)c1ccc(CN)cc1	111 to 113
CCOC(=O)c1cnn(-c2ccc(C(=O)O)cc2)c1C	201 to 203
Cn1ncc2c(=O)[nH]c(NN)nc21	285 to 287
FC(F)c1nnc2ccc(Cl)nn12	101 to 103
Nc1cc(Br)ccc1C(=O)O	222 to 224
O=S1(=O)CC(O)C(S(=O)(=O)Cl)C1 (centres undefined)	111 to 113
